The record followed here is ChEMBL document CHEMBL1138310, “Effect of structural and conformation modifications, including backbone cyclization, of hydrophilic hexapeptides on their intestinal permeability and enzymatic stability” (J Med Chem, 2007).

Each structure is given as a SMILES string. *1 amine or outer side, *2 acyl side, *3 side chain or, on linkers, in order; H or OH if unused. Where a SMILES comes first, the peptide text is derived from it. Bridges are numbered along the chain shown (N, C = ends). [ ]: non-standard residue; d: D form. Phe(Nα-(CH2)3CO) = O=C([C@H](Cc1ccccc1)N(CCCC(=O)[*:3])[*:1])[*:2]; Phe(Nα-CH2CH2CO) = O=C([C@H](Cc1ccccc1)N(CCC(=O)[*:3])[*:1])[*:2]; N(2-aminoethyl)Phe = O=C([C@H](Cc1ccccc1)N(CCN[*:3])[*:1])[*:2]; NMeF = CN[C@@H](Cc1ccccc1)C(=O)O; Sar = CNCC(=O)O

Data set [1] in a line: Apparent permeability across Caco-2 cells. The class given is ADME, cell-based. The conditions noted are these: human. For orientation: Caco-2 cells form a polarised layer with tight junctions and transporters.
Data set [2] can be described thus: Metabolic stability in rat brush border vesicles. The class given is ADME.
The next data set concerns Intestine. In words: Apparent permeability across rat small intestine. The class given is ADME, tissue-based.
Data set [3] in a line: Permeability in biomimetic membrane layer DMPC vesicles assessed as decrease in fluorescence at 30 uM by colorimetric mixed-vesicle assay. The class given is ADME, cell membranes.
The nature of data set [4]: Apparent permeability across Caco-2 cells via paracellular pathway. The class given is ADME, cell-based. The conditions noted are these: human.
A short description of data set [5]: Lipophilicity, log D in octanol at pH 7.4. The class given is physicochemical.
Data set [6] in a line: Permeability across artificial membrane by PAMPA model. The class given is ADME. The conditions noted are these: read-out: permeability.

`NC(=O)[C@H](Cc1ccccc1)N1CCNC(=O)CCCCN[C@@H](Cc2ccccc2)C(=O)NCC(=O)NCC(=O)NCC(=O)NCC1=O`: the Papp was found to be 1.5 ×10⁻⁶ cm/s in data set [1] and 5.02 ×10⁻⁶ cm/s with Intestine. Also, the Stability result in data set [2] is “Stable”.
`CN[C@@H](Cc1ccccc1)C(=O)N[C@@H](C)C(=O)N[C@@H](C)C(=O)NCC(=O)NCC(=O)N(C)[C@@H](Cc1ccccc1)C(N)=O` (H-[NMeF]AAGG[NMeF]-NH2): the figures for the Papp (in data set [1]; in the data set with Intestine) were 0.87 ×10⁻⁶ cm/s and 0.99 ×10⁻⁶ cm/s, respectively.
On to `CN[C@@H](Cc1ccccc1)C(=O)NCC(=O)NCC(=O)NCC(=O)NCC(=O)N(C)[C@@H](Cc1ccccc1)C(N)=O` (H-[NMeF]GGGG[NMeF]-NH2), for which the permeability in data set [3] was 40%. Also, the Papp in data set [1] amounted to 1.82 ×10⁻⁶ cm/s; with Intestine, 0.73 ×10⁻⁶ cm/s.
In the case of `CN[C@@H](Cc1ccccc1)C(=O)N(C)CC(=O)NCC(=O)NCC(=O)NCC(=O)N(C)[C@@H](Cc1ccccc1)C(N)=O` (H-[NMeF][Sar]GGG[NMeF]-NH2), the permeability in data set [3] worked out at 35%. The Papp came out at 0.58 ×10⁻⁶ cm/s in data set [1], 0.75 ×10⁻⁶ cm/s with Intestine and 1.74 ×10⁻⁶ cm/s in data set [4].
Regarding `CN[C@@H](Cc1ccccc1)C(=O)N(C)CC(=O)N(C)CC(=O)NCC(=O)NCC(=O)N(C)[C@@H](Cc1ccccc1)C(N)=O` (H-[NMeF][Sar][Sar]GG[NMeF]-NH2), the Papp in data set [1] was determined as 0.46 ×10⁻⁶ cm/s; in the data set with Intestine it was 1 ×10⁻⁶ cm/s.
`NC(=O)[C@H](Cc1ccccc1)N1CCNC(=O)CCCN[C@@H](Cc2ccccc2)C(=O)NCC(=O)NCC(=O)NCC(=O)NCC1=O` (H-[Phe(Nα-(CH2)3CO)]GGGG[N(2-aminoethyl)Phe]-NH2; lactam 1-6): the Papp in data set [1] was 2.73 ×10⁻⁶ cm/s; in the data set on Intestine, 4.2 ×10⁻⁶ cm/s. Besides, the Stability result in data set [2] was “Stable”.
Consider `C[C@H](NC(=O)[C@H](C)NC(=O)[C@H](Cc1ccccc1)NCCC(=O)O)C(=O)N[C@@H](C)C(=O)N[C@@H](C)C(=O)N(CCN)[C@@H](Cc1ccccc1)C(N)=O` (H-[Phe(Nα-CH2CH2CO)]AAAA[N(2-aminoethyl)Phe]-NH2), for which the results for the Papp (in data set [1]; in the data set on Intestine) were 0.2 ×10⁻⁶ cm/s and 0.67 ×10⁻⁶ cm/s, respectively.
Take `C[C@@H]1NC(=O)[C@H](C)NC(=O)[C@H](Cc2ccccc2)NCCC(=O)NCCN([C@@H](Cc2ccccc2)C(N)=O)C(=O)[C@H](C)NC(=O)[C@H](C)NC1=O` (H-[Phe(Nα-CH2CH2CO)]AAAA[N(2-aminoethyl)Phe]-NH2; lactam 1-6): the logD – broadly, the decadic logarithm of the distribution of all forms, ionised or not, between an organic phase and buffer at a given pH – in data set [5] is 0.49. Moreover, the Papp in data set [1] stood at 1.47 ×10⁻⁶ cm/s; in the data set with Intestine, 5.63 ×10⁻⁶ cm/s. For the same molecule, in data set [2], the Stability result was “Stable”.
Turning to `C[C@@H]1NC(=O)[C@H](C)NC(=O)[C@H](C)NC(=O)[C@H](Cc2ccccc2)NCCC(=O)NCCN([C@@H](Cc2ccccc2)C(N)=O)C(=O)CNC1=O` (H-[Phe(Nα-CH2CH2CO)]AAAG[N(2-aminoethyl)Phe]-NH2; lactam 1-6), the Papp in data set [1] turned out to be 3.47 ×10⁻⁶ cm/s; in the data set on Intestine it was 6.16 ×10⁻⁶ cm/s. The Stability result in data set [2] is “Stable”.
In the same order, the values of `C[C@@H]1NC(=O)[C@H](C)NC(=O)[C@H](Cc2ccccc2)NCCC(=O)NCCN([C@@H](Cc2ccccc2)C(N)=O)C(=O)CNC(=O)CNC1=O` (H-[Phe(Nα-CH2CH2CO)]AAGG[N(2-aminoethyl)Phe]-NH2; lactam 1-6) are 3.22 ×10⁻⁶ cm/s, 5.26 ×10⁻⁶ cm/s and “Stable”.
Take `C[C@@H]1NC(=O)[C@H](Cc2ccccc2)NCCC(=O)NCCN([C@@H](Cc2ccccc2)C(N)=O)C(=O)CNC(=O)CNC(=O)CNC1=O` (H-[Phe(Nα-CH2CH2CO)]AGGG[N(2-aminoethyl)Phe]-NH2; lactam 1-6): the Papp turned out to be 1.9 ×10⁻⁶ cm/s in data set [1] and 3.89 ×10⁻⁶ cm/s in the data set on Intestine. Further, the Stability entry in data set [2] is reported as “Stable”.
Regarding `NC(=O)[C@H](Cc1ccccc1)N1CCNC(=O)CCN[C@@H](Cc2ccccc2)C(=O)NCC(=O)NCC(=O)NCC(=O)NCC1=O` (H-[Phe(Nα-CH2CH2CO)]GGGG[N(2-aminoethyl)Phe]-NH2; lactam 1-6), the permeability in data set [3] amounted to 40%. For the same molecule, in data set [5], the logD was -0.41. The Papp in data set [1] worked out at 5.43 ×10⁻⁶ cm/s. Moreover, the Stability result in data set [2] was “Stable”.
`CN1CC(=O)NCC(=O)NCC(=O)NCC(=O)N([C@@H](Cc2ccccc2)C(N)=O)CCNC(=O)CCN[C@@H](Cc2ccccc2)C1=O` (H-[Phe(Nα-CH2CH2CO)][Sar]GGG[N(2-aminoethyl)Phe]-NH2; lactam 1-6): the permeability in data set [3] amounted to 35%. Moreover, the log distribution coefficient (logD) in data set [5] was -0.57. Also, the Papp came out at 2.22 ×10⁻⁶ cm/s in data set [1], 4.58 ×10⁻⁶ cm/s with Intestine and 7.58 ×10⁻⁶ cm/s in data set [4]. The Stability result in data set [2] is recorded as “Stable”.
Regarding `CN1CC(=O)NCC(=O)NCC(=O)N([C@@H](Cc2ccccc2)C(N)=O)CCNC(=O)CCN[C@@H](Cc2ccccc2)C(=O)N(C)CC1=O` (H-[Phe(Nα-CH2CH2CO)][Sar][Sar]GG[N(2-aminoethyl)Phe]-NH2; lactam 1-6), the results for the Papp (in data set [1]; in the data set with Intestine) were 2.45 ×10⁻⁶ cm/s and 3.94 ×10⁻⁶ cm/s, respectively. Moreover, the Stability entry in data set [2] is reported as “Stable”.
In the same order, the values of `CN1CC(=O)NCC(=O)N([C@@H](Cc2ccccc2)C(N)=O)CCNC(=O)CCN[C@@H](Cc2ccccc2)C(=O)N(C)CC(=O)N(C)CC1=O` (H-[Phe(Nα-CH2CH2CO)][Sar][Sar][Sar]G[N(2-aminoethyl)Phe]-NH2; lactam 1-6) are 2.95 ×10⁻⁶ cm/s, 5.63 ×10⁻⁶ cm/s and “Stable”.
Turning to `CN1CC(=O)N(C)CC(=O)N([C@@H](Cc2ccccc2)C(N)=O)CCNC(=O)CCN[C@@H](Cc2ccccc2)C(=O)N(C)CC(=O)N(C)CC1=O` (H-[Phe(Nα-CH2CH2CO)][Sar][Sar][Sar][Sar][N(2-aminoethyl)Phe]-NH2; lactam 1-6), the figures for the Papp (in data set [1]; in the data set with Intestine) were 1.56 ×10⁻⁶ cm/s and 4.87 ×10⁻⁶ cm/s, respectively. The Stability result in data set [2] is “Stable”.
`Nc1nc2c(ncn2COCCO)c(=O)[nH]1` [ACYCLOVIR]: in data set [6], the Papp is 0.01 ×10⁻⁶ cm/s.
Regarding `Cc1cc(=O)n(-c2ccccc2)n1C` [ANTIPYRINE], the Papp in data set [6] is 1.18 ×10⁻⁶ cm/s.
Consider `OC[C@@H](O)[C@@H](O)[C@H](O)[C@H](O)CO` [MANNITOL], for which the figures for the Papp (in data set [1]; in the data set on Intestine) were 2.2 ×10⁻⁶ cm/s and 5 ×10⁻⁶ cm/s, respectively.
As to `C[C@]12CC[C@H]3[C@@H](CCC4=CC(=O)CC[C@@]43C)[C@@H]1CC[C@@H]2O` [TESTOSTERONE], the Papp in data set [6] was 8.67 ×10⁻⁶ cm/s.
